Laboratory results published in publication PMC12136037, “Type II kinase inhibitors that target Parkinson’s disease–associated LRRK2” (Science Advances, 2025).
“And” between values parts separate entries of the source, which are not always exact repeats. Identical values can stand only once.

Assays:
[1] = target: T1, ~100 representative kinases (Homo sapiens, UniProt Q96KB5); assay: DSF 100 kinase selectivity screen; assay type: binding; conditions: Protein TOPK; DSF; average of three replicates;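 further: compound tested at 20 µM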
T1 construct: Recombinant protein kinase domains with a concentration of 2 μM
T1 sequence (Q96KB5 1-322): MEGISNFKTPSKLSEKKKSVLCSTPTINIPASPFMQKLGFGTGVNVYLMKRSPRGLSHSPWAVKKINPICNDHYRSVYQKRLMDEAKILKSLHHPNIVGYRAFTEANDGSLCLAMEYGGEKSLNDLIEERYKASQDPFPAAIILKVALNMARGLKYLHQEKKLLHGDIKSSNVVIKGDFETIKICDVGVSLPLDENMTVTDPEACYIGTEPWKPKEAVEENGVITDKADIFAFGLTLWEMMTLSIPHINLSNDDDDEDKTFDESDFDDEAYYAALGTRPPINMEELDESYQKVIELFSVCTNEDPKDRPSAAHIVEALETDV
Method in brief: (§1)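 Each kinase domain, at 2 μM, is mixed with 20 μM test compound and SYPRO Orange in Hepes (20 mM, pH 7.5) with 500 mM NaCl. Temperature is then raised at 3°C/min and fluorescence-monitored unfolding yields the melting temperature change, ΔTm in degrees Celsius.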

[2] = target: T2, ~100 representative kinases (Homo sapiens, UniProt Q9BRS2); assay: DSF 100 kinase selectivity screen; assay type: binding; conditions: Protein RIOK1; DSF; average of three replicates;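 further: compound tested at 20 µM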
T2 construct: Recombinant protein kinase domains with a concentration of 2 μM
T2 sequence (Q9BRS2 1-568): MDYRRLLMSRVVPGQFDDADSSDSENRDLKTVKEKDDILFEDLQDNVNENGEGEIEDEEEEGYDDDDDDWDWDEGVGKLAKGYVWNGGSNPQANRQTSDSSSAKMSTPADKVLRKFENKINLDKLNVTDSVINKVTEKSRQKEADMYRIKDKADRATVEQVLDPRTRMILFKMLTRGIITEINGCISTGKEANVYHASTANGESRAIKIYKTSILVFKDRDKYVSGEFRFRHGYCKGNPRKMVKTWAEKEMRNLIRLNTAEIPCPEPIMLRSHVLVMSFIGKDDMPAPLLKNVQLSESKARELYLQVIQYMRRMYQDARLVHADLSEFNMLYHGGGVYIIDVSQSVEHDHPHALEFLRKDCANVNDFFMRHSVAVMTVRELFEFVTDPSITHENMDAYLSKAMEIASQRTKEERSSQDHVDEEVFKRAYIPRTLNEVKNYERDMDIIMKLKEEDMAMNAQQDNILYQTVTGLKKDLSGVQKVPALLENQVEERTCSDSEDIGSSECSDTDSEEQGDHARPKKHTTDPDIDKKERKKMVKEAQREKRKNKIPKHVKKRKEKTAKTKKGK
Method in brief: as §1

[3] = system: LRRK2 S935 phosphorylation; assay: Western blot of LRRK2 biomarker site pS935 in transfected 293T cells; assay type: cell-based, human; conditions: for pS935 LRRK2/LRRK2 normalized to DMSO, Mean / pS935 LRRK2/LRRK2 normalized to DMSO: 4 h; for pS935 LRRK2/LRRK2 normalized to DMSO, Mean: 3 replicates; for pS935 LRRK2/LRRK2 normalized to DMSO: individual Western blots; for effect on phosphorylation of LRRK2 S935: 293T cells, MLi-2 500 nM
Protocol: For all in cell kinase assays, after 48 hours, transfected cells were treated with either DMSO (control) or the indicated inhibitors for 4 hours at 37°C and 5% CO2. Following treatments, cells were washed three times with ice cold PBS. Cells were then lysed in ice cold radioimmunoprecipitation assay (RIPA) lysis buffer [50 mM tris (pH 8.0), 150 mM NaCl, 1% Triton X-100, 0.1% SDS, 0.5% sodium deoxycholate, and 1 mM DTT] in the presence of complete mini EASYpack protease inhibitor cocktail and the PhosSTOP EASYpack phosphatase inhibitor cocktail (Roche). Resuspended and lysed cells were clarified by centrifugation at 13,000g for 15 min at 4°C. NuPAGE LDS Sample Buffer (1×) and NuPAGE Sample Reducing Agent (1×; Invitrogen) were added to the clarified supernatants, and the samples were boiled at 95°C for 5 min and spun down at 13,000g for 10 min. For Western blotting, 15 μl of sample was loaded into a NuPAGE 4 to 12% gradient bis-tris gel (Invitrogen) and run at 120 V for 75 min before transfer to polyvinylidene difluoride transfer membrane (0.45-μm pore size, Millipore) for 240 min at 80 V at 4°C. The membrane was blocked in 5% milk in 1× Tris-buffered saline (TBS) [20 mM tris (pH 8.0) and 150 mM NaCl] for 1 hour shaking at room temperature. Primary antibodies [monoclonal rabbit anti-LRRK2 (Abcam, ab133474; RRID: AB_2713963), polyclonal rabbit anti-LRRK1 (Abcam, ab228666), monoclonal rabbit anti-LRRK2 phospho-S935 (Abcam, ab133450; RRID: AB_2732035), monoclonal rabbit anti-Rab8a phospho-T72 (Abcam, ab230260; RRID: AB_2814988), monoclonal rabbit anti-Rab7 phospho-S72 (Abcam, ab302494; RRID: AB_2933985), monoclonal rabbit anti–glyceraldehyde-3-phosphate dehydrogenase (GAPDH; Cell Signalling Technology, 2118; RRID: AB_561053), and monoclonal mouse anti-GFP (Santa Cruz Biotechnology, sc-9996; RRID: AB_627695)] were diluted in 5% milk in TBS and incubated with membrane for 16 hours at 4°C. Following incubation, membranes were washed three times with 1× TBS-T [20 mM tris (pH 8.0), 150 mM NaCl, and 0.1% Tween 20] before incubation with IRDye 680RD goat anti-rabbit IgG (LI-COR, 926-68071; RRID: AB_10956166) and IRDye 800CW goat anti-mouse IgG (LI-COR, 926-32210; RRID: AB_621842) secondary antibodies in 5% milk in 1× TBS for 1 hour at room temperature. Membranes were then washed three times in 1× TBS-T before imaging on Li-COR Odyssey CLx controlled by Imaging Studio software (www.licorbio.com/image-studio, RRID:SCR_015795). Image processing and quantification were performed in ImageJ version 2.14.0 (National Institutes of Health; https://imagej.net/, RRID:SCR_003070). The signal intensity of each band was assessed using the Analyze>Gels tool. The band intensity for phosphorylated LRRK2 was measured and compared to total LRRK2 levels (run under identical conditions on a separate gel). Band intensity for phosphorylated Rab7 or Rab8a was measured and compared against total GFP-Rab7 or GFP-Rab8a (using anti-GFP antibody) and LRRK1/LRRK2 levels as appropriate. Comparative statistical analysis of phosphorylation levels was analyzed using a one-way analysis of variance (ANOVA) and corrected using Tukey’s multiple comparisons test in GraphPad Prism 10 (www.graphpad.com/, RRID:SCR_002798). (For current step-by-step protocol for LRRK transfection and Western blotting, see dx.doi.org/10.17504/protocols.io.kxygx9bozg8j/v1.)

For `Cc1ccc(C(=O)Nc2ccc(CN3CCN(C)CC3)c(C(F)(F)F)c2)cc1C#Cc1c[nH]c2ncnc(N3CCOCC3)c12` [Compound 1], the dTm [1] was 2.13 K and the dTm [2] was 4.09 K.
In the case of `Cc1ccc(-n2nc(C(C)(C)C)cc2NC(=O)Nc2cccc(-c3c[nH]c4nc(Cl)nc(N5CCOCC5)c34)c2)cc1` [Compound 30], the “pS935 LRRK2/LRRK2 normalized to DMSO, Mean” value ([3]; 250 nM) is reported as 0.9168, the “pS935 LRRK2/LRRK2 normalized to DMSO” value ([3]; 250 nM, listed as 277) is reported as 0.9442 and 0.8289 and 0.9773 and the “pS935 LRRK2/LRRK2 normalized to DMSO, Mean” value ([3]; 500 nM) is reported as 0.8971. The “pS935 LRRK2/LRRK2 normalized to DMSO” value ([3]; 500 nM, listed as 277) was 0.9489 and 0.8102 and 0.9321, the “pS935 LRRK2/LRRK2 normalized to DMSO, Mean” value ([3]; 1 μM) was 0.8756 and the “pS935 LRRK2/LRRK2 normalized to DMSO” value ([3]; 1 μM, listed as 277) was 1.005 and 0.7529 and 0.869. The “pS935 LRRK2/LRRK2 normalized to DMSO, Mean” value ([3]; 5 μM) was 0.9338, the “pS935 LRRK2/LRRK2 normalized to DMSO” value ([3]; 5 μM, listed as 277) was 0.9369 and 0.9197 and 0.9447 and the “pS935 LRRK2/LRRK2 normalized to DMSO, Mean” value ([3]; 10 μM) was 0.9235. The “pS935 LRRK2/LRRK2 normalized to DMSO” value ([3]; 10 μM, listed as 277) was 0.9197 and 0.9052 and 0.9455 and the “effect on phosphorylation of LRRK2 S935” value [3] was “none of the tested type II inhibitors (broad-spectrum kinase inhibitor Ponatinib or our top compounds RN277 and RN341) reduced the phosphorylation level at this site”.
With `CCSc1nc(NC)c2c(-c3cccc(NC(=O)Nc4cc(C(C)(C)C)nn4-c4ccc(C)cc4)c3)c[nH]c2n1` [Compound 32] the “pS935 LRRK2/LRRK2 normalized to DMSO, Mean” value ([3]; 250 nM) was 0.9603, the “pS935 LRRK2/LRRK2 normalized to DMSO” value ([3]; 250 nM, listed as 341) was 0.9872 and 0.9193 and 0.9743 and the “pS935 LRRK2/LRRK2 normalized to DMSO, Mean” value ([3]; 500 nM) was 0.9221. For the same molecule, the “pS935 LRRK2/LRRK2 normalized to DMSO” value ([3]; 500 nM, listed as 341) was 0.9409 and 0.8795 and 0.9459, the “pS935 LRRK2/LRRK2 normalized to DMSO, Mean” value ([3]; 1 μM) was 0.8783 and the “pS935 LRRK2/LRRK2 normalized to DMSO” value ([3]; 1 μM, listed as 341) was 0.9145 and 0.9018 and 0.8186. The “pS935 LRRK2/LRRK2 normalized to DMSO, Mean” value ([3]; 5 μM) was 0.8974, the “pS935 LRRK2/LRRK2 normalized to DMSO” value ([3]; 5 μM, listed as 341) was 0.9195 and 0.9472 and 0.8255 and the “pS935 LRRK2/LRRK2 normalized to DMSO, Mean” value ([3]; 10 μM) was 0.9517. For the same molecule, the “pS935 LRRK2/LRRK2 normalized to DMSO” value ([3]; 10 μM, listed as 341) was 0.9588 and 0.9056 and 0.9906 and the “effect on phosphorylation of LRRK2 S935” value [3] was “none of the tested type II inhibitors (broad-spectrum kinase inhibitor Ponatinib or our top compounds RN277 and RN341) reduced the phosphorylation level at this site”.
`CCNc1nc(Nc2cc(F)c(C(=O)N3CCOCC3)cc2OC)ncc1C(F)(F)F` [GNE-7915] showed a dTm [1] of 0.03 K and a dTm [2] of -0.09 K.
Work on `Cc1ccc(C(=O)Nc2ccc(CN3CCN(C)CC3)c(C(F)(F)F)c2)cc1C#Cc1cnc2[nH]ncc2c1` [GZD-824, reference compound] yielded a dTm [1] of 4.33 K and a dTm [2] of 2.49 K.
For `C[C@@H]1CN(c2cc(-c3n[nH]c4ccc(OC5(C)CC5)cc34)ncn2)C[C@H](C)O1` [MLi2], the dTm [1] was 0.0743 K and the dTm [2] was -1.66 K.
`Cn1cc(-c2c[nH]c3ncnc(N4CCOCC4)c23)cc1C#N` [PFE-360] showed a dTm [1] of 0.66 K and a dTm [2] of -0.58 K.
In the case of `Cc1ccc(C(=O)Nc2ccc(CN3CCN(C)CC3)c(C(F)(F)F)c2)cc1C#Cc1cnc2cccnn12` [Ponatinib, reference compound], the dTm [1] is reported as 2.32 K, the dTm [2] is reported as 1.86 K and the “pS935 LRRK2/LRRK2 normalized to DMSO, Mean” value ([3]; 5 μM) is reported as 0.91. For the same molecule, the “pS935 LRRK2/LRRK2 normalized to DMSO” value ([3]; 5 μM) was 0.7959 and 0.8749 and 1.059 and the “effect on phosphorylation of LRRK2 S935” value [3] was “none of the tested type II inhibitors (broad-spectrum kinase inhibitor Ponatinib or our top compounds RN277 and RN341) reduced the phosphorylation level at this site”.
